From paper PMC9503459, “Antifungal Activity, Structural Stability, and Immunomodulatory Effects on Human Immune Cells of Defensin from the Lentil Lens culinaris” (Membranes, 2022)
No end group written: not given here.

System: polarized Caco-2 monolayer
Assay: Cytokine response by multiplex xMAP, Caco-2
Assay type: cell-based, human
Conditions: 2 µM, 24 h
Protocol: Colorectal adenocarcinoma Caco-2 cell line (ATCC HTB-37) was cultured in complete DMEM/F12 (1:1) medium containing 10% fetal bovine serum (FBS, Gibco) and 1X antibiotic-antimycotic solution (1XAAS, Invitrogen, Waltham, MA, USA). The acute monocytic leukemia THP-1 line (ATCC TIB-202) was cultured in complete RPMI-1640 medium, containing 10% FBS, 1XAAS, and […]. THP-1 cells were differentiated into pro-inflammatory macrophages (Mφ1) with phorbol 12-myristate 13-acetate (Sigma-Aldrich) for 24 h and subsequently polarized with lipopolysaccharide from E. coli (Sigma-Aldrich) and rhIFN-γ (Sigma-Aldrich) for another 48 h according to previously reported protocol. All cells were cultured in a humidified CO2 incubator (5% CO2, 37 °C). Primary peripheral blood mononuclear cells (PBMCs) collected from a healthy donor were purchased from American Type Culture Collection (ATCC PCS-800-011). CD4^+ T-helper and CD8^+ T cytotoxic cells were isolated from PBMCs by magnetic separation with mouse anti-human CD4-PE (clone 13B8.2, Beckman Coulter Diagnostics, Pasadena, CA, USA) and CD8-PE (clone REA734, Miltenyi Biotec, Bergisch Gladbach, Germany), Anti-PE MicroBeads (Miltenyi Biotec), and LS Separation Columns (Miltenyi Biotec). Isolated CD4^+ and CD8^+ cells were expanded separately with Dynabeads™ Human T-Expander CD3/CD28 (Gibco, Waltham, MA, USA) in RPMI-1640 supplemented with 10% FBS, 1XAAS and 100 U/mL rh-IL-2 (Gibco). Regulatory CD4^+ FoxP3^+ T cells (Tregs) were isolated from PBMCs by magnetic separation with CD4^+CD25^+ Regulatory T Cell Isolation Kit, human (Miltenyi Biotec). Primary CD14^+ blood monocytes were isolated from PBMCs by adherence according to standard technique. Monocyte-derived mature dendritic cells (moDCs) were obtained from CD14^+ blood monocytes according to the previously reported protocol. Briefly, blood monocytes were incubated in complete RPMI-1640 medium, containing 10% FBS, 1XAAS, 800 U/mL rhGM-CSF (Sci-Store, Russia, Moscow) and 500 U/mL rhIL-4 (Sci-Store) for 3 days. Fresh complete RPMI-1640 medium with rhGM-CSF and rhIL-4 was added to the culture on day 3. On day 5, fresh complete RPMI-1640 containing 100 U/mL rhTNF-α (Sigma) as well as 800 U/mL rhGM-CSF and 500 U/mL rhIL-4 was added and the culture was incubated for another 4 days until full maturation.
Caco-2 cells were seeded into the wells of a 48-well plate, coated with 0.1% bovine collagen (Sigma-Aldrich) for 24 h, 3 weeks before the experiment with complete DMEM/F12 (1:1) medium renewal every 2–3 days. Monocytes, moDCs, CD4^+ T-helper and CD8^+ T cytotoxic cells, Mφ1, and Regulatory CD4^+ FoxP3^+ T cells were seeded into the wells of 48-well plates in the complete RPMI-1640 medium supplemented with 10% Human AB serum (HABS, Capricorn Scientific, Ebsdorfergrund, Germany) and 1XAAS 24 h prior to the experiment; medium in Caco-2-containing wells was also replaced with the same medium. After 24 h, half of the medium in each well was replaced by fresh complete RPMI-1640 medium with 10% HABS, supplemented with 4 µM of Lc-def for the sample wells or fresh medium alone for the control wells. Cell cultures were kept in CO2-incubator (5% CO2, 37 °C) for another 24 h. Culture supernatants were collected 24 h later and stored at −70 °C degrees less than one month prior to the analytes assessment. […]

## Lc-def: defensin from lentil Lens culinaris seeds (UniProt:B3F051), recombinant, overexpressed in Escherichia coli (KTCENLSDSFKGPCIPDGNCNKHCKEKEHLLSGRCRDDFRCWCTRNC; disulfide (positions not given here); ends not checked; also: disulfide bonds present, pairing not given here; UniProt B3F051 28-74, looked up)
Caco-2 monolayer
  EGF: <1.95↓ pg/ml
  Eotaxin: <3.23↓ pg/ml
  FGF-2: 19.54 pg/mL
  FLT-3L: <0.45↓ pg/ml
  Fractalkine: <23.19↓ pg/ml
  G-CSF: <2.57↓ pg/ml
  GM-CSF: <1.36↓ pg/ml
  GROa: 21.87 pg/mL
  IFNa2: <4.43↓ pg/ml
  IFNg: <1.99↓ pg/ml
  IL-1RA: <0.83↓ pg/ml
  IL-1a: <3.64↓ pg/ml
  IL-1b: <18.72↓ pg/ml
  IL-2: <0.31↓ pg/ml
  IL-3: <0.48↓ pg/ml
  IL-4: 11.31 pg/mL
  IL-5: <0.24↓ pg/ml
  IL-6: 1.45 pg/mL
  IL-7: <0.33↓ pg/ml
  IL-8: 7.94 pg/mL
  IL-9: 11.08 pg/mL
  IL-10: <0.68↓ pg/ml
  IL-12 (p40): <3.02↓ pg/ml
  IL-12 (p70): <1.48↓ pg/ml
  IL-13: 42.42 pg/mL
  IL-15: <1.45↓ pg/ml
  IL-17A: <1.55↓ pg/ml
  IL-17E/IL-25: <20.59↓ pg/ml
  IL-17F: <16.96↓ pg/ml
  IL-18: <0.35↓ pg/ml
  IL-22: 51.96 pg/mL
  IL-27: <8.55↓ pg/ml
  IP-10: 29.22 pg/mL
  M-GSF: <23.75↓ pg/ml
  MCP-1: <1.52↓ pg/ml
  MCP-3: 12.67 pg/mL
  MDC: <0.35↓ pg/ml
  MIG: <3.43↓ pg/ml
  MIP-1a: <1.76↓ pg/ml
  MIP-1b: <1.92↓ pg/ml
  PDGF-AA: 541.87 pg/mL
  PDGF-AB/BB: 188.6 pg/mL
  RANTES: <0.67↓ pg/ml
  TGF-a: <0.66↓ pg/ml
  TNFa: <3.91↓ pg/ml
  TNFb: 21.23 pg/mL
  VEGFa: 2653 pg/mL
  sCD40L: <6.66↓ pg/ml
Polarized Caco-2 monolayer
  effect on cytokine production: no effect
